In US8551958B2, “Galactosylated pro-drugs of non-steroidal anti-inflammatories with improved pharmacokinetic characteristics and reduced toxicity of the starting drug” (Stewart Italia Srl, priority 2008, dated 2013):

Assays:
[1] = system: mouse carrageenan paw oedema; experiment: Carrageenan oedema test; format: in vivo, mice; conditions: for Carrageenan-induced oedema, first phase (0-6 h): pro-drug 16.3 mg/kg oral; for Oedema formation after parent drug: 10 mg/kg oral
Procedure: Anti-inflammatory activity was tested by means of the carrageenan oedema test. The mice were divided into groups of six. The initial volumes of the leg of all the animals were measured using a plethysmometer. The oedema is induced in the leg by means of sub-plantar injection of 50 μl of saline solution containing 1% of carrageenan. The volume of the leg was measured at different time intervals. Said experimental model consists of two phases: a first, acute, phase lasting 6 hours and a second, chronic, phase, up to 72 hours.
The anti-inflammatory activity of the physical mixture of ketorolac and galactose was evaluated with the carrageenan induced mice hind paw edema assay, as described for ketogal. […]
The carrageenan induced mice hind paw oedema assay described by D'Agostino et al. (2007) was used to evaluate the acute anti-inflammatory activity of the conjugate. Mice were divided into control and test groups of six animals each. Initial paw volumes of all animals were measured using a plethysmometer apparatus (Ugo Basile, Milan, Italy) before treatment. Paw oedema was induced by a subplantar injection of 50 μL of saline containing 1% λ-carrageenan into the right hind paw. […] free acid and ketogal were orally administrated 1 h before carrageenan challenge. Paw volume was measured at different time intervals by plethysmometer. The increase in paw volume was evaluated as the difference between the paw volume measured at each time point and the basal paw volume measured immediately before carrageenan injection.

[2] = Chemical stability of the pro-drug (phosphate buffer pH 7.4; HCl 0.1 N pH 1), HPLC; format: physicochemical; conditions: in the dark; for pH 7.4 T½: phosphate buffer at pH 7.4, 37° C.; for pH 1 T½: solution of HCl 0.1 N (pH 1), 37° C.
Procedure: For the stability study, the solutions of pro-drug were prepared by dissolving an aliquot of Ketogal in a phosphate buffer at pH 7.4, or else in a solution of HCl 0.1 N (pH 1), as regards chemical stability, or else in a plasma specimen, for enzymatic stability. The solutions were kept in the dark, at a temperature of 37° C., for 24 hours. After each hour an aliquot of specimen was taken. In the case of plasma, said aliquot was previously extracted with acetonitrile (1:2), “vortexed” and centrifuged at 3000 r.p.m. for 10 min. The supernatant was taken and used for analysis at HPLC with diode detector. The half-lives for chemical stability and enzymatic stability were calculated by quantizing, in time, the percentage of pro-drug that remained in solution. For the chromatographic separations, a 1090L HPLC (Hewlett-Packard, Palo Alto, USA) was used, coupled to a diode detector HP 1040A. A Phenomenex Luna C18 (250×4.6 mm, 5 μm) column was used. The wavelength used was 313 nm. The mobile phase was constituted by acetonitrile and an aqueous solution of phosphoric acid […] (pH 3) in the ratio of 68:32. The flow was 1 mL/min, with an injection volume of 20 μl. All the reagents and the solvents used were of analytical degree. The distilled and deionized water was purified by means of a Milli Q system (Millipore). The retention times of the compounds were: ketorolac: 6.7 min; Ketogal: 3.8 min. As internal standard tolmetin was used (9.3 min). The straight line of calibration for quantification of the compounds was constructed using standard solutions with concentrations of between 0.1 and 100 μg/ml. The linearity was obtained with a coefficient of regression (R^2) of approximately 0.998.
For the study of the stability, the solutions of pro-drug were prepared by dissolving an aliquot of Flugal in a phosphate buffer at pH 7.4, as regards chemical stability, or else in a plasma specimen, for enzymatic stability. The solutions were kept in the dark, at a temperature of 37° C., for 24 hours. After each hour an aliquot of specimen was taken. In the case of the plasma said amount was previously extracted with acetonitrile (1:2), “vortexed”, and centrifuged at 3000 r.p.m. for 10 min. The supernatant was taken and used for analysis at HPLC with diode detector. The half-lives for the chemical stability and enzymatic stability were calculated by quantizing, in time, the percentage of pro-drug that remained in solution. A 1090L HPLC (Hewlett-Packard, Palo Alto, USA) coupled to a diode detector HP 1040A was used for the chromatographic separations. The column used was a Supelcosil LC-18, 250×4.6 mm, particle size […]. The volume injected was […] and the flow of 1 mL/min. The mobile phase was constituted by a mixture of aqueous CH3CN/H3PO4 1 mM (pH 3) [32:68]. For the quantitative determination reading was made at 250 nm. The retention times of the various compounds involved in the analysis were: for Flugal 6 min and for flurbiprofen 11 min. All the reagents and the solvents used were of analytical degree. The distilled and deionized water was purified by means of a Milli Q system (Millipore). The straight line of calibration for the quantification of the compounds was constructed using standard solutions with concentrations of between 0.1 and 100 μg/ml. Linearity was obtained with a coefficient of regression (R^2) of approximately 0.998. From the results of said analysis (illustrated in Table 3) it emerges that the pro-drug Flugal has a good chemical stability and a good susceptibility to enzymatic hydrolysis.
Chemical stability was assessed also at pH 1.0 in a solution of HCl 0.1N as described.
For the stability study, the solutions of pro-drug were prepared by dissolving an aliquot of Okigal in a phosphate buffer at pH 7.4, or else in a solution of HCl 0.1 N (pH 1), as regards chemical stability, or else in a plasma specimen, for enzymatic stability. The solutions were kept in the dark, at a temperature of 37° C., for 24 hours. […]

[3] = Enzymatic stability in plasma, HPLC; format: in vitro ADME; conditions: plasma specimen, 37° C., in the dark; read-out: Plasma T½ (converted)
Procedure: For the stability study, the solutions of pro-drug were prepared by dissolving an aliquot of Ketogal in a phosphate buffer at pH 7.4, or else in a solution of HCl 0.1 N (pH 1), as regards chemical stability, or else in a plasma specimen, for enzymatic stability. The solutions were kept in the dark, at a temperature of 37° C., for 24 hours. After each hour an aliquot of specimen was taken. In the case of plasma, said aliquot was previously extracted with acetonitrile (1:2), “vortexed” and centrifuged at 3000 r.p.m. for 10 min. The supernatant was taken and used for analysis at HPLC with diode detector. The half-lives for chemical stability and enzymatic stability were calculated by quantizing, in time, the percentage of pro-drug that remained in solution. For the chromatographic separations, a 1090L HPLC (Hewlett-Packard, Palo Alto, USA) was used, coupled to a diode detector HP 1040A. A Phenomenex Luna C18 (250×4.6 mm, 5 μm) column was used. The wavelength used was 313 nm. The mobile phase was constituted by acetonitrile and an aqueous solution of phosphoric acid […] (pH 3) in the ratio of 68:32. The flow was 1 mL/min, with an injection volume of 20 μl. All the reagents and the solvents used were of analytical degree. The distilled and deionized water was purified by means of a Milli Q system (Millipore). […] The straight line of calibration for quantification of the compounds was constructed using standard solutions with concentrations of between 0.1 and 100 μg/ml. […]
For the study of the stability, the solutions of pro-drug were prepared by dissolving an aliquot of Flugal in a phosphate buffer at pH 7.4, as regards chemical stability, or else in a plasma specimen, for enzymatic stability. […] The half-lives for the chemical stability and enzymatic stability were calculated by quantizing, in time, the percentage of pro-drug that remained in solution. […] For the quantitative determination reading was made at 250 nm. […] The straight line of calibration for the quantification of the compounds was constructed using standard solutions with concentrations of between 0.1 and 100 μg/ml. […]

mice = experiment: Ulcerogenicity studies, flurbiprofen and flugal (NSAID-induced gastric damage in mice); format: in vivo; conditions: oral, after 4 h; for gastric lesion score / n. of ulcers: flurbiprofen 10 mg/kg, flugal 16.6 mg/kg (table); for n. of ulcers: fasted mice
Procedure: NSAID-induced gastric damage in mice was evaluated following the procedure described by Chan et al. (1995). […] After 4 h of treatment, mice were euthanized and the stomach was excised along its greater curvature and rinsed with normal saline. The mucosa was then examined by means of a magnifying glass for the presence of irritation or frank hemorrhagic lesions (ulcers). Irritation was assigned a score of 1, and ulcerations were scored according to their length (a score of 5 for lesions with a length between 1 and 3 mm; a score of 10 for lesions greater than 3 mm). The sum of total scores was used for comparison.

[4] = system: mouse carrageenan paw oedema; experiment: Carrageenan oedema test; format: in vivo, mice; conditions: pro-drug 16.3 mg/kg oral, 1 h before carrageenan
male Swiss mice [5] = experiment: Ulcerogenicity studies, ketorolac and Ketogal (gastric lesions); format: in vivo; conditions: oral, ketorolac 10.0 mg/kg, Ketogal 16.3 mg/kg, after 4 hours
Procedure: The gastric lesions were evaluated in male Swiss mice. To the fasted animals (16-18 h) were administered, by oral route, ketorolac (10 mg/kg), Ketogal (16.3 mg/kg), or the vehicle. After 4 hours, the mice were sacrificed and the stomach removed, cut along the major curvature, washed with physiological solution, and the mucous was examined for evaluation of the presence of petechias and/or gastric lesions. A “score” of 1 was assigned to the petechias, and a “score” based on the diameter (a “score” of 5 for lesions of a diameter of less than 1 mm; a “score” of 10 for lesions with a diameter of more than 1 mm) was, instead, assigned to the lesions.

[6] = system: writhing induced by acetic acid; experiment: Writhing test induced by acetic acid; format: in vivo, mice; conditions: 60 min prior to acetic acid
Procedure: The analgesic activity was studied using the “writhing test” using acetic acid and using magnesium sulphate. To the mice there was administered by intraperitoneal route 1 mL of solution at 1% of acetic acid, and the number of writhing events was evaluated for 20 min, after 5 min from administration of the solution of acetic acid. Writhing is defined as a contraction of the abdominal muscles accompanied by elongation of the body and of the rear legs. Ketorolac and Ketogal were administered by oral route 60 min prior to administration of the solution of acetic acid. The analgesic effect is expressed in number of writhing events as compared to the control.

[7] = system: writhing induced by magnesium sulphate; experiment: Writhing induced by magnesium sulphate (visceral pain); format: in vivo, mouse; conditions: ketorolac 0.01 to 10 mg/kg, Ketogal in equimolar dose; 1 hour before magnesium sulphate 120 mg/kg
Procedure: In order to determine whether ketorolac and Ketogal are able to inhibit visceral pain, the effects of these compounds on “writhing” induced by magnesium sulphate were tested. Magnesium sulphate induces a reversible response when injected by intraperitoneal route in the mouse. The administration of 120 mg/kg of magnesium sulphate induces an average of 6±0.9 episodes of “writhing” in the mouse (n=6).

male Swiss mice [8] = experiment: Chronic and sub-chronic experiments: liver, kidney and stomach examination; format: in vivo; conditions: ketorolac 10 mg/Kg, ketogal 16.3 mg/Kg, oral
Procedure: (§1) Animals were sacrificed and then liver, stomach and kidney were collected in glass tubes and analysed histologically and biochemically.
Liver samples were fixed in 10% buffered formalin and embedded in paraffin, sliced, and stained with hematoxylin & eosin (H&E) for assessment of liver pathology. […] To confirm histological data, western blot analysis for TNF-alpha, IL-6 and malonyldialdehyde assay were then performed in liver lysates.

COX-1 = experiment: Western blot, stomach, COX-1 protein expression; format: in vivo, mice; conditions: ketorolac 10 mg/Kg, ketogal 16.3 mg/Kg, oral, 3, 5 and 7 days; versus control stomachs
Description: as §1

PGE synthase = experiment: Western blot, stomach, PGE synthase protein expression; format: in vivo, mice; conditions: ketorolac 10 mg/Kg, ketogal 16.3 mg/Kg, oral, 3, 5 and 7 days
Description: as §1

PPAR-gamma = experiment: Western blot, stomach, PPAR-gamma protein expression; format: in vivo, mice; conditions: ketorolac 10 mg/Kg, ketogal 16.3 mg/Kg, oral, 3, 5 and 7 days
Description: as §1

| SMILES | pH 7.4 T½ [2] | pH 1 T½ [2] | half-life [3] | gastric lesion score (mice) | n. of ulcers (mice) | Carrageenan-induced oedema, first phase (0-6 h) ([1]; 1 h before carrageenan) | Carrageenan-induced oedema, second phase (24-96 h) [4] | Oedema formation after parent drug ([1]; 1 h before carrageenan) | also measured |
| --- | --- | --- | --- | --- | --- | --- | --- | --- | --- |
| O=C[C@H](O)[C@@H](O)[C@@H](O)[C@H](O)CO [galactose, reference compound] | – | – | – | – | – | – | – | – | Anti-inflammatory activity of galactose alone ([1]; galactose 16.3 mg/kg oral, 1 h before carrageenan): no anti-inflammatory activity |
| O=C(c1ccccc1)c1ccc2n1CC[C@@H]2C(=O)O [ketorolac, reference compound] | – | – | – | – | – | – | – | – | Degree of ulcerogenicity (male Swiss mice [5]; score 1 petechias, 5 or 10 lesions): 10; Number of ulcers (male Swiss mice [5]; fasted mice): 4 ± 0.4; Dosages with significant analgesic effect (p<0.01) ([6]; ketorolac by oral route): significant at the dosages of 1 and 10 mg/kg; Analgesic effect (number of writhing events compared to control) ([6]; oral, ketorolac 0.01-10 mg/kg, Ketogal 0.0163-16.3 mg/kg): dose-dependent analgesic effect; Inhibition of writhing induced by magnesium sulphate [7]: able to inhibit this response in a dose-dependent way; Formation of oedema, first phase, lowest dose ([1]; ketorolac 0.1 mg/kg oral, first phase): had no effect; Kidney histology (male Swiss mice [8]; after 3, 5 and 7 days): normal kidney histology; Stomach samples, ulcerogenicity (male Swiss mice [8]; for 3 days): high ulcerogenicity degree; Gastric COX-1 protein expression (COX-1): significantly inhibited; Gastric PGE synthase protein expression (PGE synthase): significantly reduced; Gastric PPAR-gamma protein expression (PPAR-gamma): significantly reduced |
| CC(C(=O)O)c1cccc(C(=O)c2ccccc2)c1 (centres unmarked) [Ketoprofen, ketoprofen, reference compound] | – | – | – | – | – | – | – | significantly inhibited oedema formation until 48 h | – |
| CC(C(=O)O)c1ccc(-c2ccccc2)c(F)c1 (centres unmarked) [flurbiprofen, reference compound] | – | – | – | 2 | 3 ± 1.5 | – | – | significantly inhibited oedema formation until 48 h | – |

The next lines start with results.

| pH 7.4 T½ [2] | pH 1 T½ [2] | half-life [3] | SMILES | gastric lesion score (mice) | n. of ulcers (mice) | Carrageenan-induced oedema, first phase (0-6 h) ([1]; 1 h before carrageenan) | Carrageenan-induced oedema, second phase (24-96 h) [4] | Oedema formation after parent drug ([1]; 1 h before carrageenan) | also measured |
| --- | --- | --- | --- | --- | --- | --- | --- | --- | --- |
| >8 hours | >8 hours | 1 h | CC(C(=O)OCC1O[C@H](O)C(O)[C@@H](O)[C@H]1O)c1ccc(-c2ccccc2)c(F)c1 (stereo partly drawn) [Flugal, flurbiprofen-D-galactos-6′-yl ester] | 0 | 1 ± 1 | did not modify carrageenan-induced oedema | significant anti-inflammatory effect | – | Ulcerogenic activity (in words) (mice; flugal 16.3 mg/kg): caused only irritation without ulceration |
| >8 hours | >8 hours | 4 h | CC(C(=O)OCC1O[C@H](O)C(O)C(O)[C@H]1O)c1cccc(C(=O)c2ccccc2)c1 (stereo partly drawn) [Okigal, Ketoprofen-D-galactos-6′-yl ester] | – | – | slightly modify carrageenan-induced oedema | significant anti-inflammatory effect | – | – |
